{"source": "patent US12077777B2", "about": "“Precursory regulatory cytotrophoblast cells and uses thereof” (Accelerated BioSciences Corp., priority 2019, dated 2024)", "key": {"[1]": {"system": "Foxp3", "assay": "IL-8 induced Foxp3 via CXCR2/STAT3 signaling, Western blot", "format": "cell-based, human", "conditions": "IL-8 30 ng/ml; for IL-8-induced Foxp3 in presence of inhibitor: n=3 cell lines", "protocol": "(§1) After electrophoresis of 30 μg lysates on polyacrylamide gels, electroblotting onto PDVF membranes (MILLIPORE®) was performed. By blocking of 5% non-fat dry milk in PBS at room temperature (I hr), target proteins were incubated with primary antibodies. All membranes were incubated with chemiluminescent (MILLIPORE®) and imaging was captured by the CHEMIDOC® XRS system (BIO-RAD®). Antibodies used were listed in Key Resource Table. Data were analyzed by AlphaEaseFC (version 4.0.0)."}, "[2]": {"system": "CD56", "assay": "IL-8 induced CD56 via CXCR2/STAT3 signaling, Western blot assay", "format": "cell-based, human", "conditions": "IL-8 30 ng/ml", "protocol": "as §1"}, "[3]": {"system": "CD4", "assay": "IL-8 generated CD4(+) prCTBs, Western blot assay", "format": "cell-based, human", "conditions": "IL-8 30 ng/ml", "protocol": "as §1"}, "[4]": {"system": "hTSCs", "assay": "RT-qPCR analysis of IL-6 / IL-8 treated hTSCs", "format": "cell-based, human", "conditions": "n=4; for CREB1 mRNA: IL-6 10 ng/ml or IL-8 30 ng/ml", "protocol": "RNA was isolated from hTS cells in triplicate or quintuple samples using TRIZOL® reagent (INVITROGEN®) with DNAase I on-column digestion (Qiagen) according to manufacturer's protocol. Total RNA (500 ng) was used for reverse transcription with […] cDNA synthesis kit (BIO-RAD®). PCR carried out in duplicate using 1/40th of the cDNA per reaction and 400 nM forward and reverse primers. For miRNA stem-loop qPCR, we used single tube TAQMAN® miRNA assays as manufacturer's instruction (Applied Biosystems). All RT reactions, including no-template controls and RT minus controls, were carried out in a GENEAMP® PCR 9700 Thermocycler (Applied Biosystems). Comparative real-time PCR was performed in triplicate or quintuple, including no-template controls, using specific primers for miR-124 or RNU6B (Applied Biosystems). U6 snRNA (RNU6B; Applied Biosystems) served as an endogenous control. Relative expression was calculated using SDS2.2.2 software (Applied Biosystems) was used for comparative ΔCt analysis."}, "[5]": {"molecular_target": "T1, FGFR1 (Homo sapiens, UniProt P11362)", "T1 construct": "endogenous in cells; host or cells: human trophoblast stem (hTS) cells", "T1 sequence (P11362 22-822)": "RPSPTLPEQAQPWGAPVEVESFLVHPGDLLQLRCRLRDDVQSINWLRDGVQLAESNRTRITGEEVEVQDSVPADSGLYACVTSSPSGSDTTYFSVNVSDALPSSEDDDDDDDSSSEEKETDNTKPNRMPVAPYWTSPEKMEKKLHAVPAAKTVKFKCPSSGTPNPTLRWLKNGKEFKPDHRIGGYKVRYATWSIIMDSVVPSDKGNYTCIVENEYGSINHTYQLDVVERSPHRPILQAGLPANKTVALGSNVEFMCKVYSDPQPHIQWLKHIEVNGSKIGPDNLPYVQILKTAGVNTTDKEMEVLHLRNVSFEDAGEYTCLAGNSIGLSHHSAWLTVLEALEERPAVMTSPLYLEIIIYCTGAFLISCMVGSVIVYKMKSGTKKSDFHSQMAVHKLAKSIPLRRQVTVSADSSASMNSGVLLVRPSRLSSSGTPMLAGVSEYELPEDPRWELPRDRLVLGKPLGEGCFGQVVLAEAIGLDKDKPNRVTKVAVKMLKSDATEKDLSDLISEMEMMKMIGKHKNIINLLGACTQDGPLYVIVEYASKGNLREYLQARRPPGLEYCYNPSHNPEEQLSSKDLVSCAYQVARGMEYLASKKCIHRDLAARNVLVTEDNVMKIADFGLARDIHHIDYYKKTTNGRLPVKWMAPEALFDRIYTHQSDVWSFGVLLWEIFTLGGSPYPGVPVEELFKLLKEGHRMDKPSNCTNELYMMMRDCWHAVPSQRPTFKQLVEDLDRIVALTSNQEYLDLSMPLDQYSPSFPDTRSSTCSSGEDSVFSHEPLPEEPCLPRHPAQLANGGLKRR", "assay": "bFGF activation of FGFR1 and downstream PI3K signal, Western blot assay", "format": "cell-based", "conditions": "bFGF 10 ng/ml", "protocol": "as §1, with “In cell culture, hTS cells were treated with bFGF and harvested at time as indicated and put into RIPA lysis solution (MILLIPORE®) supplemented with protease (Thermo Scientific) and phosphatase inhibitor (Cell Signaling Technology). After” for “After”"}, "[6]": {"system": "hTS cells", "assay": "Insulin secretion by RIA in secretomic analysis", "format": "cell-based, human", "conditions": "hTS cells (1×10^6 cells), glucose 20 mM, gliclazide 10 μM, nifedipine 10 μM, n=3", "protocol": "The hTS cell culture media (10 ml) were harvested at 80-90% confluence followed by centrifugation (3,000 rpm, 30 min, 4° C.). The supernatants were further concentrated to 1 ml by using 3 kDa VIVASPIN® concentrator (Sigma). The concentrated supernatant was further detected for TGF-β1, HLA-G, and PAI-1 by immunoblotting assay. IL-10 level was measured by OPTEIA® ELISA assay kit following the supplier's instructions (BD Pharmingen, San Diego). The range of detectable IL-10 concentration was between 2 and 2,000 pg/ml. An aliquot of 100 μl sample was measured in triplicate. Total protein of supernatant was measured by using Pierce BCA protein assay kit (THERMO […]®). […] Media were collected at different time (5, 10, 20, 30, 60 and 120 min), freeze dried by lyophilizer (VIRTIS®; Warminster), and rehydrated with sterile water (400 μl) for radioimmunoassay (RIA). C-peptide and insulin levels were determined by C-PEP II-RIA-CT (DIAsource ImmunoAssays S. A.) and Coat-A-Count insulin (Siemens Healthcare Diagnostics), respectively, in 5 assays."}, "[7]": {"system": "hTSCs", "assay": "Transwell invasion and migration assay, hTSCs", "format": "cell-based, human", "conditions": "dose- and time-dependent; 4×10^3 cells/ml; n=3"}, "[8]": {"system": "prCTBs", "assay": "Transwell invasion and migration assay, prCTBs", "format": "cell-based, human", "conditions": "dose- and time-dependent; 4×10^3 cells/ml; n=3", "protocol": "[…] To do this, add extracellular matrix (ECM) materials on top of the transwell membrane and then add cells on top of the ECM. For example, […]® is thawed and liquefied on ice, and then 30-50 μl of […]® is added to a 24-well transwell insert and solidified in a 37 C incubator for 15-30 minutes to form a thin gel layer. Cell solution is added on top of the […]® coating to simulate invasion through the extracellular matrix. The transwell cell migration assay measures the chemotactic capability of cells toward a chemo-attractant. The transwell cell invasion assay, however, measures both cell chemotaxis and the invasion of cells through extracellular matrix, a process that is commonly found in cancer metastasis or embryonic development. Using a pipette, very carefully add 600 μl of the desired chemo-attractant into the bottom of the lower chamber in a 24-well plate. Add the chemo-attractant without moving the transwell insert and avoid generating bubbles. Make sure the chemo-attractant liquid in the bottom well makes contact with the membrane in the upper well to form a chemotactic gradient. Incubation time is dependent on cell type and the chemo-attractant being used. Note: Further tests may be needed to determine the incubation period. […] The number of migrated cells can be counted by using hemocytometer or flow cytometer. […]"}, "[9]": {"system": "PI3K/AKT signaling", "assay": "Gβ/PI3K/AKT/GSK3α/β pathway by blotting analysis in hTS cells", "format": "cell-based, human", "protocol": "as §1, with “In cell culture, hTS cells were treated with bFGF and harvested at time as indicated and put into RIPA lysis solution (MILLIPORE®) supplemented with protease (Thermo Scientific) and phosphatase inhibitor (Cell Signaling Technology). After” for “After”"}, "[10]": {"system": "hTSCs", "assay": "bFGF-induced epithelial-mesenchymal transition markers, Western blot assay", "format": "cell-based, human", "conditions": "bFGF 10 ng/ml", "protocol": "as §1, with “In cell culture, hTS cells were treated with bFGF and harvested at time as indicated and put into RIPA lysis solution (MILLIPORE®) supplemented with protease (Thermo Scientific) and phosphatase inhibitor (Cell Signaling Technology). After” for “After”"}, "[11]": {"system": "STAT3, c-JUN, Fas ligand (FasL), Fas", "assay": "STAT3, c-JUN, FasL and Fas by immunoblotting assay", "format": "cell-based, human", "conditions": "bFGF 10 ng/ml", "protocol": "as §1, with “In cell culture, hTS cells were treated with bFGF and harvested at time as indicated and put into RIPA lysis solution (MILLIPORE®) supplemented with protease (Thermo Scientific) and phosphatase inhibitor (Cell Signaling Technology). After” for “After”"}, "[12]": {"system": "IL-6 and IL-8", "assay": "bFGF induction of IL-6 and IL-8", "format": "cell-based, human", "conditions": "bFGF 10 ng/ml; time-dependent; n=3 cell lines", "protocol": "To explore how prCTBs produce cytokines IL-6 and IL-8, hTSCs were incubated with bFGF for 1-day mimicking the transient stay in the fallopian tube. Mechanistically, bFGF activated its receptor FGFR1 at cell membrane to induce PI3K/phosphorylated (p)AKT signaling. In turn, pAKT interacted and phosphorylated downstream pCREB1 (cAMP responsive element binding protein 1) to activate pCREB1 signaling. These molecular processes were verified by using FGFR 1 inhibitor PD166866, and specific shRNAs for PI3K and pAKT (FIGS. 7G-7J). In the nucleus, CREB1 targeted the genes to produce IL-6 in a time-dependent manner (FIG. 7K, left panel) and IL-8 (FIG. 7K, right panel) in a dose-dependent manner, confirmed by ELISA assay (FIG. 7C). These molecular processes occurred co-incidentally with EMT in time and space."}, "[13]": {"system": "β-hCG", "assay": "IL-6 induced β-hCG, Western blot assay", "format": "cell-based, human", "conditions": "IL-6 10 ng/ml, via GnRHR and IL-6R", "protocol": "as §1"}}, "data": [{"compound": "O=C(Nc1ccc([N+](=O)[O-])cc1O)Nc1ccccc1Br", "note": "[SB225002]", "values": [{"measurement": "IL-8-induced Foxp3 in presence of inhibitor", "setting": "[1]", "value": "inhibited"}, {"measurement": "IL-8-induced CD56 in presence of inhibitor", "setting": "[2]", "value": "inhibited"}, {"measurement": "IL-8-induced CD4 in presence of inhibitor", "setting": "[3]", "value": "inhibited"}]}, {"compound": "IL-8: interleukin 8", "values": [{"measurement": "Foxp3 induction", "setting": "[1]", "value": "induced Foxp3"}, {"measurement": "CD56 induction", "setting": "[2]", "value": "induced CD56"}, {"measurement": "CREB1 mRNA", "setting": "[4]; hTSCs", "value": "upregulates"}, {"measurement": "CD56 mRNA", "setting": "[4]; IL-8 30 ng/ml", "value": "upregulates"}, {"measurement": "conventional receptor IL-8R mRNA", "setting": "[4]; IL-8 30 ng/ml", "value": "not"}, {"measurement": "generation of CD4(+) prCTBs", "setting": "[3]", "value": "generated CD4(+) prCTBs"}]}, {"compound": "COc1cc(OC)cc(-c2cc3cnc(N)nc3nc2NC(=O)NC(C)(C)C)c1", "note": "[PD166866, reference compound]", "values": [{"measurement": "bFGF activation of FGFR1 and PI3K signal in presence of inhibitor", "setting": "[5]", "value": "inhibited"}]}, {"compound": "Cc1ccc(S(=O)(=O)NC(=O)NN2CC3CCCC3C2)cc1", "note": "(stereo not shown) [gliclazide]", "values": [{"measurement": "insulin secretion", "setting": "[6]", "value": "promoted insulin secretion"}]}, {"compound": "CXCL2: chemokine (C-X-C motif) ligand 2", "values": [{"measurement": "movement (invasion and migration) of hTSCs", "setting": "[7]", "value": "significantly induced movement"}, {"measurement": "movement (invasion and migration) of prCTBs", "setting": "[8]", "value": "significantly induced movement"}]}, {"compound": "NC1(c2ccc(-c3nc4ccn5c(=O)[nH]nc5c4cc3-c3ccccc3)cc2)CCC1", "note": "[MK2206]", "values": [{"measurement": "Gβ-induced phosphorylation of AKT (ser473) and GSK3α/β (ser21/9) in presence of inhibitor", "setting": "[9]", "value": "inhibited"}]}, {"compound": "bFGF: basic fibroblast growth factor", "values": [{"measurement": "activation of FGFR1 and downstream PI3K signal", "setting": "[5]", "value": "activated"}, {"measurement": "E-cadherin expression", "setting": "[10]", "value": "down-regulated"}, {"measurement": "TGF-β1 expression", "setting": "[10]", "value": "up-regulated"}, {"measurement": "vimentin expression", "setting": "[10]", "value": "up-regulated"}, {"measurement": "Fas level", "setting": "[11]", "value": "downregulation"}, {"measurement": "Fas ligand (FasL) level", "setting": "[11]", "value": "upregulation"}, {"measurement": "STAT3 level", "setting": "[11]", "value": "upregulation"}, {"measurement": "c-JUN level", "setting": "[11]", "value": "upregulation"}, {"measurement": "IL-6 production", "setting": "[12]", "value": "induced"}, {"measurement": "IL-8 production", "setting": "[12]", "value": "induced"}]}, {"compound": "MCP-1: monocyte chemoattractant protein-1", "values": [{"measurement": "movement (invasion and migration) of hTSCs", "setting": "[7]", "value": "significantly induced movement"}, {"measurement": "movement (invasion and migration) of prCTBs", "setting": "[8]", "value": "significantly induced movement"}]}, {"compound": "IL-6: interleukin 6", "values": [{"measurement": "β-hCG induction", "setting": "[13]", "value": "induced β-hCG"}, {"measurement": "CREB1 mRNA", "setting": "[4]; hTSCs", "value": "upregulated"}, {"measurement": "IL-6R mRNA", "setting": "[4]; IL-6 10 ng/ml, hTSCs", "value": "upregulated"}, {"measurement": "β-hCG mRNA", "setting": "[4]; IL-6 10 ng/ml, hTSCs", "value": "upregulated"}]}, {"compound": "Cn1cc(C2=C(c3ccc(Cl)cc3Cl)C(=O)NC2=O)c2ccccc21", "note": "[SB216763]", "values": [{"measurement": "pMAFA expression in presence of inhibitor", "setting": "[9]", "value": "inhibited"}]}, {"compound": "O=[N+]([O-])c1ccc2c(c1)S(=O)(=O)C=C2", "note": "[Stattic]", "values": [{"measurement": "IL-8-induced Foxp3 in presence of inhibitor", "setting": "[1]", "value": "inhibited"}, {"measurement": "IL-8-induced CD56 in presence of inhibitor", "setting": "[2]", "value": "inhibited"}, {"measurement": "IL-8-induced CD4 in presence of inhibitor", "setting": "[3]", "value": "inhibited"}]}]}
